Source: ChEMBL document CHEMBL1201862, “PubChem BioAssay data set” (2004)
Active and inactive are the calls of the source.

Experiments:
Format in all cases: functional
[1] = target: Calcium/calmodulin-dependent protein kinase type II subunit gamma (Homo sapiens, UniProt Q13555)
[2] = target: MAP kinase-activated protein kinase 3 (Homo sapiens, UniProt Q16644);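 further: value comes from a kinome-wide profiling panel in which MAPKAPK3 is one of the panel members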
[3] = target: Serine/threonine-protein kinase Chk2 (Homo sapiens, UniProt O96017);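 further: CHEK2 entry within a kinome-wide screening panel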
[4] = target: SRSF protein kinase 1 (Homo sapiens, UniProt Q96SB4);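 further: measured as one member of a kinome-wide kinase profiling panel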
[5] = target: Tyrosine-protein kinase Srms (Homo sapiens, UniProt Q9H3Y6);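 further: SRMS measured as one member of a kinome-wide kinase profiling panel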
[6] = target: Death-associated protein kinase 3 (Homo sapiens, UniProt O43293);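 further: measured as one member of a kinome-wide profiling panel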
[7] = target: Dual specificity tyrosine-phosphorylation-regulated kinase 4 (Homo sapiens, UniProt Q9NR20)
[8] = target: Tyrosine-protein kinase receptor TYRO3 (Homo sapiens, UniProt Q06418);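 further: TYRO3 value obtained as one member of a kinome-wide profiling panel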
[9] = target: Rho-associated protein kinase 1 (Homo sapiens, UniProt Q13464);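 further: measured within a broad kinome-wide panel profiling many kinases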
[10] = target: Non-receptor tyrosine-protein kinase TYK2 (Homo sapiens, UniProt P29597)
[11] = target: Casein kinase II subunit alpha (Homo sapiens, UniProt P68400)
[12] = target: Insulin-like growth factor 1 receptor (Homo sapiens, UniProt P08069); test: Navigating the Kinome. Panel member name: IGF1R
[13] = target: Ephrin type-A receptor 2 (Homo sapiens, UniProt P29317);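 further: EPHA2 tested as one member of a kinome-wide kinase panel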
[14] = target: Serine/threonine-protein kinase N2 (Homo sapiens, UniProt Q16513)
[15] = target: Mitogen-activated protein kinase 13 (Homo sapiens, UniProt O15264)
[16] = target: Macrophage colony-stimulating factor 1 receptor (Homo sapiens, UniProt P07333);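 further: value comes from the Navigating the Kinome screening panel, CSF1R member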
[17] = target: cGMP-dependent protein kinase 1 (Homo sapiens, UniProt Q13976);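 further: value from a kinome panel screen with PRKG1 as the panel member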
[18] = target: Misshapen-like kinase 1 (Homo sapiens, UniProt Q8N4C8);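 further: kinome panel screen with MINK as the panel member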
[19] = target: Tyrosine-protein kinase ABL1 (Homo sapiens, UniProt P00519)
[20] = target: Serine/threonine-protein kinase DCLK1 (Homo sapiens, UniProt O15075);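 further: affinity for DCLK1 (listed as DCAMKL1) measured as one member of a kinome-wide kinase profiling panel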
[21] = target: Serine/threonine-protein kinase PAK 1 (Homo sapiens, UniProt Q13153)
[22] = target: Calcium/calmodulin-dependent protein kinase type 1 (Homo sapiens, UniProt Q14012)
[23] = target: Serine/threonine-protein kinase pim-2 (Homo sapiens, UniProt Q9P1W9);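 further: value comes from a broad kinase panel profiling study in which PIM2 was one of the panel members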
[24] = target: Fibroblast growth factor receptor 1 (Homo sapiens, UniProt P11362)
[25] = target: Mitogen-activated protein kinase kinase kinase 20 (Homo sapiens, UniProt Q9NYL2)
[26] = target: Mitogen-activated protein kinase 1 (Homo sapiens, UniProt P28482)
[27] = target: Megakaryocyte-associated tyrosine-protein kinase (Homo sapiens, UniProt P42679);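 further: affinity measured as one member of a kinase panel (Navigating the Kinome) against MATK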
[28] = target: Mitogen-activated protein kinase kinase kinase kinase 4 (Homo sapiens, UniProt O95819)
[29] = target: Serine/threonine-protein kinase MRCK alpha (Homo sapiens, UniProt Q5VT25)
[30] = target: Proto-oncogene tyrosine-protein kinase ROS (Homo sapiens, UniProt P08922);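 further: ROS1 tested as one member of a kinome-wide kinase panel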
[31] = target: BDNF/NT-3 growth factors receptor (Homo sapiens, UniProt Q16620);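 further: NTRK2 measured as one member of a broad kinome-wide kinase profiling panel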
[32] = target: Serine/threonine-protein kinase BRSK1 (Homo sapiens, UniProt Q8TDC3);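 further: measured within a kinome-wide kinase panel, with the target listed as KIAA1811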
[33] = target: Serine/threonine-protein kinase PLK1 (Homo sapiens, UniProt P53350);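 further: PLK1 measured as one member of a kinome-wide profiling panel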
[34] = target: Calcium/calmodulin-dependent protein kinase type II subunit beta (Homo sapiens, UniProt Q13554)
[35] = target: Proto-oncogene tyrosine-protein kinase receptor Ret (Homo sapiens, UniProt P07949);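 further: measured within a kinome-wide profiling panel, RET as the panel member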
[36] = target: Serine/threonine-protein kinase pim-1 (Homo sapiens, UniProt P11309)
[37] = target: cAMP-dependent protein kinase catalytic subunit alpha (Homo sapiens, UniProt P17612)
[38] = target: Tyrosine-protein kinase BTK (Homo sapiens, UniProt Q06187)
[39] = target: Tyrosine-protein kinase JAK2 (Homo sapiens, UniProt O60674);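 further: JAK2 tested as one member of a kinase panel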
[40] = target: Mitogen-activated protein kinase 8 (Homo sapiens, UniProt P45983);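 further: value comes from one member of a kinome-wide kinase profiling panel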
[41] = target: Serine/threonine-protein kinase pim-3 (Homo sapiens, UniProt Q86V86);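 further: value obtained as one member of a broad kinase panel profiling effort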
[42] = target: Receptor tyrosine-protein kinase erbB-2 (Homo sapiens, UniProt P04626); test: Navigating the Kinome. Panel member name: ERBB2
[43] = target: Casein kinase I isoform gamma-1 (Homo sapiens, UniProt Q9HCP0);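 further: measured as the CSNK1G1 member of a kinome profiling panel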
[44] = target: Tyrosine-protein kinase Fer (Homo sapiens, UniProt P16591);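 further: FER tested as one member of a kinome panel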
[45] = target: Tyrosine-protein kinase FRK (Homo sapiens, UniProt P42685);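 further: FRK tested as one member of a kinome panel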
[46] = target: Cyclin-dependent kinase 1 (Homo sapiens, UniProt P06493);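 further: Kinome-wide panel profiling, with the target listed as panel member CDC2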
[47] = target: Fibroblast growth factor receptor 3 (Homo sapiens, UniProt P22607)
Chain of Fibroblast growth factor receptor 3 (P22607 whole entry): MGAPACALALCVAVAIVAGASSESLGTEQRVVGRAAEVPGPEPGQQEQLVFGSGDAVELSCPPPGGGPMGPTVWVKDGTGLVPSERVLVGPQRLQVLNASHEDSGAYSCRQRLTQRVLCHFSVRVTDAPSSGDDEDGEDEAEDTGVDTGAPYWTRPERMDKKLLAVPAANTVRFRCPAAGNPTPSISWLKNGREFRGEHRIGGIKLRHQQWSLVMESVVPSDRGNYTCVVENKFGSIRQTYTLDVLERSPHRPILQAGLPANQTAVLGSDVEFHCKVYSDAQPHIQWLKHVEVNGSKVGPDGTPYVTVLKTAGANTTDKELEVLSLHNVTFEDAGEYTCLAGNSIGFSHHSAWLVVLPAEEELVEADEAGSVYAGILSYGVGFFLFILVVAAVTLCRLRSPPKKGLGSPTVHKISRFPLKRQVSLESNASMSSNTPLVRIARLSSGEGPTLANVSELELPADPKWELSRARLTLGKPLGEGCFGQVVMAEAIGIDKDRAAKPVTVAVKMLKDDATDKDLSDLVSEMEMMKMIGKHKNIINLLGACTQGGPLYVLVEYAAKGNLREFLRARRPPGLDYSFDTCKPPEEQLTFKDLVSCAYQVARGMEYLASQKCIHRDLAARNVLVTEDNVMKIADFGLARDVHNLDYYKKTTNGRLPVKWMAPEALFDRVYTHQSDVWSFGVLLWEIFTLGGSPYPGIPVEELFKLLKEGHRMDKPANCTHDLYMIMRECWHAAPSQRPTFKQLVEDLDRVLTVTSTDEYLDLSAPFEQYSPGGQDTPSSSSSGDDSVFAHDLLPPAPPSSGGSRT

Chain of Serine/threonine-protein kinase DCLK1 (O15075 whole entry): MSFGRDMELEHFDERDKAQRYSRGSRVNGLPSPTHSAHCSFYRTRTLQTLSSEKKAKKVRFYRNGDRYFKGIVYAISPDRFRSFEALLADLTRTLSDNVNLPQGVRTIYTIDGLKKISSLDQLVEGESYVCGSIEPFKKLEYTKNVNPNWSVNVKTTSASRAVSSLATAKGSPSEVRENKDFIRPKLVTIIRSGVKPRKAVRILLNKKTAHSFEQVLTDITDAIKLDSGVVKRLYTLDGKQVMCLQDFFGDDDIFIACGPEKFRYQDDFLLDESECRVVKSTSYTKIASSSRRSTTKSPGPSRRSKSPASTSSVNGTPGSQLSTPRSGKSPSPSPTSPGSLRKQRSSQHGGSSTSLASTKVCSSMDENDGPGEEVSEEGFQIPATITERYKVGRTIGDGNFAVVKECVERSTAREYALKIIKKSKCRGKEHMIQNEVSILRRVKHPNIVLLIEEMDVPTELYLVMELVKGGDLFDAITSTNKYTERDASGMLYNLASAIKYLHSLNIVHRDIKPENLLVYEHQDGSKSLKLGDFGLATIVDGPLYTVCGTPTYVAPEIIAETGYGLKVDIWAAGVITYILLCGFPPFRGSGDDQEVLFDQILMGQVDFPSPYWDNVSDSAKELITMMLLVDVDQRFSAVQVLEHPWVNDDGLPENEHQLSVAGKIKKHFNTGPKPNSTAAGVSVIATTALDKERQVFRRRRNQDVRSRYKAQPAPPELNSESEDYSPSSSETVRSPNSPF
Chain of Mitogen-activated protein kinase 1 (P28482 whole entry): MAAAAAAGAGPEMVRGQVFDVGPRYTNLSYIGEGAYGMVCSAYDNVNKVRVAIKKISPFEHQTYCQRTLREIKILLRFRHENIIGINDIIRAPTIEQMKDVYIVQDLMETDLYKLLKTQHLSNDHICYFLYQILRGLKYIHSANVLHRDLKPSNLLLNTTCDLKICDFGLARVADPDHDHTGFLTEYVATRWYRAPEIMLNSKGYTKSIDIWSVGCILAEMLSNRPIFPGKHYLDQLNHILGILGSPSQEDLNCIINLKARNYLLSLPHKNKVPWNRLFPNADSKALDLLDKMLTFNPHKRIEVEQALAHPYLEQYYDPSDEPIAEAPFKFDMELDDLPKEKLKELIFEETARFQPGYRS
Chain of Tyrosine-protein kinase Fer (P16591 whole entry): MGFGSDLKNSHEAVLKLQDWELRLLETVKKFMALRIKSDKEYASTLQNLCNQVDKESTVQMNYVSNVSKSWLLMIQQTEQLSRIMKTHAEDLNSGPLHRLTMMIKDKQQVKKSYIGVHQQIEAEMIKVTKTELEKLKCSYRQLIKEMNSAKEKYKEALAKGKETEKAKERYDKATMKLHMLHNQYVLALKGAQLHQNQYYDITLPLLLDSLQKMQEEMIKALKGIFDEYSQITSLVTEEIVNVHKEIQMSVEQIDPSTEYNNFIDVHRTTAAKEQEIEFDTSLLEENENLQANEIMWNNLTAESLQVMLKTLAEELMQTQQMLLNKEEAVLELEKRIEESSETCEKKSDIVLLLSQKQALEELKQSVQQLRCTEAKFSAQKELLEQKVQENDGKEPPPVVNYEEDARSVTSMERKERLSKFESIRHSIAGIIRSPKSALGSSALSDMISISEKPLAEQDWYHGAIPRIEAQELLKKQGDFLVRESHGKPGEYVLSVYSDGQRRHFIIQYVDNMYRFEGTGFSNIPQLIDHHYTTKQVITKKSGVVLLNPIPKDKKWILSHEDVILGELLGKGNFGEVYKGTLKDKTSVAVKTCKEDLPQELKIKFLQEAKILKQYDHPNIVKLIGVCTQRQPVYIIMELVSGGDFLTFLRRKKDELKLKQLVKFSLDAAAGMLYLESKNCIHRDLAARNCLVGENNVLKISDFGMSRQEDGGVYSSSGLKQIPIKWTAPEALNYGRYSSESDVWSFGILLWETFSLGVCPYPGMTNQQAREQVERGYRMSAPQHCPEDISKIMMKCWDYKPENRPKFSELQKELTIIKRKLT
Chain of Non-receptor tyrosine-protein kinase TYK2 (P29597 whole entry): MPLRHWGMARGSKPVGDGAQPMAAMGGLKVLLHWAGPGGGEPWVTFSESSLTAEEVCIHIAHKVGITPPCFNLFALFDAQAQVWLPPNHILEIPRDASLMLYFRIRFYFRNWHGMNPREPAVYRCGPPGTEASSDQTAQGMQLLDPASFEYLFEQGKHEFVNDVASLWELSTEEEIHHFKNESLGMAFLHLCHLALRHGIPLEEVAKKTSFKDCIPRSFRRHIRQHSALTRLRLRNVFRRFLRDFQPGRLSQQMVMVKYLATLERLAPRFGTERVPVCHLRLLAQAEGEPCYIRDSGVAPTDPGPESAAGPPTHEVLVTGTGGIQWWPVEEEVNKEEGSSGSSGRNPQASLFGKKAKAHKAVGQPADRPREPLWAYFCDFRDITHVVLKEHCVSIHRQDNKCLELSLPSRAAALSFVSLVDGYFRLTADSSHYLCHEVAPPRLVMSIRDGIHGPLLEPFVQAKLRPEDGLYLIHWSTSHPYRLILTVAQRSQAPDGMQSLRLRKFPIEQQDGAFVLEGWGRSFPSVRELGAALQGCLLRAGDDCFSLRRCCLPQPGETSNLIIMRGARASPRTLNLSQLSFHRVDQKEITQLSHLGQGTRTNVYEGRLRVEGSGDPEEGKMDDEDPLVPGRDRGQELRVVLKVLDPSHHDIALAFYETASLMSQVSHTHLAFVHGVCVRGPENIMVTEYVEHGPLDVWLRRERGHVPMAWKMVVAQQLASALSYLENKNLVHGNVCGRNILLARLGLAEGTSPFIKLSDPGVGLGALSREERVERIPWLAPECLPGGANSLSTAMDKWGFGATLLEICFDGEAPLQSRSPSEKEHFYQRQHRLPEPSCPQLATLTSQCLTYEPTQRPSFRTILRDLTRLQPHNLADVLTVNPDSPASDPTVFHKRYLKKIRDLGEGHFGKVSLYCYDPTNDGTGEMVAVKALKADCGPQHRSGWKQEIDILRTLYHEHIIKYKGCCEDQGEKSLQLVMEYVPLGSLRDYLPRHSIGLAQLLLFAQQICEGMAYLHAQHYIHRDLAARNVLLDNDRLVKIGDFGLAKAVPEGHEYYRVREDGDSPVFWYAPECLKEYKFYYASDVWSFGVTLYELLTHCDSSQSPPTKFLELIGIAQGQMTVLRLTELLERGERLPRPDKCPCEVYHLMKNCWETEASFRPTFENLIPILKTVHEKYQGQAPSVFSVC
Chain of Serine/threonine-protein kinase BRSK1 (Q8TDC3 whole entry): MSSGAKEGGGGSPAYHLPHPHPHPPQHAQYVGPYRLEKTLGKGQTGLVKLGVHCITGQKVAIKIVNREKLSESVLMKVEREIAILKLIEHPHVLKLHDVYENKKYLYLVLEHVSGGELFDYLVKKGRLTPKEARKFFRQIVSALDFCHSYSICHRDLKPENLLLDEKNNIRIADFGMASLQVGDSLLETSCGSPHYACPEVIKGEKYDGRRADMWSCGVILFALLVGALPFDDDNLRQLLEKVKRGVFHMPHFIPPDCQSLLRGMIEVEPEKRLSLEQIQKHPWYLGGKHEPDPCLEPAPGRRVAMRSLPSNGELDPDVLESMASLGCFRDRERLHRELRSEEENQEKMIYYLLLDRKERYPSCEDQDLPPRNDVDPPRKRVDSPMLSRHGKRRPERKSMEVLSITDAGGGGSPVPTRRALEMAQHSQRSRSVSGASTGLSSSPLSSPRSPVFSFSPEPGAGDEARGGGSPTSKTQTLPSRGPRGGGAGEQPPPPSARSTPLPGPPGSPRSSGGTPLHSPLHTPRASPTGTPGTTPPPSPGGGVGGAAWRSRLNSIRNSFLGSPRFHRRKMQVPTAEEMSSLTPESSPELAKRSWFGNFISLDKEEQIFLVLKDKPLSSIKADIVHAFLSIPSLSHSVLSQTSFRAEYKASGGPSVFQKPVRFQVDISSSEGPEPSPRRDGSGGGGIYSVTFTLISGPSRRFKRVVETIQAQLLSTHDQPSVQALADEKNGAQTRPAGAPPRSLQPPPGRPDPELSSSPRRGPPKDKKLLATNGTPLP
Chain of Serine/threonine-protein kinase pim-1 (P11309 whole entry): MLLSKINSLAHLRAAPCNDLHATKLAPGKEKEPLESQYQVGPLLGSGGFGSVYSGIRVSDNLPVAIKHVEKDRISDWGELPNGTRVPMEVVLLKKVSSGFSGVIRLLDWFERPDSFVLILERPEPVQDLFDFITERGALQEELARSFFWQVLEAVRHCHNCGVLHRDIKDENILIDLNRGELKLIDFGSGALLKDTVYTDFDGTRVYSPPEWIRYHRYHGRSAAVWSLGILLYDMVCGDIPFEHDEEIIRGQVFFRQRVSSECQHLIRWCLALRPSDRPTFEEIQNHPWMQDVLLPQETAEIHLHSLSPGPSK

Compound: NC1CCCCC1Nc1nccc(-c2c[nH]c3ncccc23)n1 (configuration not stated)
- Ki [1]: 79.4 nM (active)
- Ki [2]: > 10000 nM (inactive)
- Ki [3]: > 1580 nM (inactive)
- Ki [4]: 1260 nM (active)
- Ki [5]: > 1580 nM (inactive)
- Ki [6]: 39.8 nM (active)
- Ki [7]: 158 nM (active)
- Ki [8]: > 2000 nM (inactive)
- Ki [9]: 5.01 nM (active)
- Ki [10]: > 2000 nM (inactive)
- Ki [11]: > 6310 nM (inactive)
- Ki [12]: > 2000 nM (inactive)
- Ki [13]: > 3160 nM (inactive)
- Ki [14]: 251 nM (active)
- Ki [15]: 398 nM (active)
- Ki [16]: > 2510 nM (inactive)
- Ki [17]: 158 nM (active)
- Ki [18]: 126 nM (active)
- Ki [19]: > 631 nM (inactive)
- Ki [20]: 3160 nM (active)
- Ki [21]: 3160 nM (active)
- Ki [22]: > 2000 nM (inactive)
- Ki [23]: 1000 nM (active)
- Ki [24]: > 5010 nM (inactive)
- Ki [25]: > 7940 nM (inactive)
- Ki [26]: 501 nM (active)
- Ki [27]: > 2000 nM (inactive)
- Ki [28]: 31.6 nM (active)
- Ki [29]: 63.1 nM (active)
- Ki [30]: > 2000 nM (inactive)
- Ki [31]: > 5010 nM (inactive)
- Ki [32]: 5010 nM (active)
- Ki [33]: > 7940 nM (inactive)
- Ki [34]: 316 nM (active)
- Ki [35]: 251 nM (active)
- Ki [36]: 501 nM (active)
- Ki [37]: 25.1 nM (active)
- Ki [38]: > 1260 nM (inactive)
- Ki [39]: 794 nM (active)
- Ki [40]: > 3160 nM (inactive)
- Ki [41]: 501 nM (active)
- Ki [42]: > 1580 nM (inactive)
- Ki [43]: 316 nM (active)
- Ki [44]: 1580 nM (active)
- Ki [45]: 1580 nM (active)
- Ki [46]: 158 nM (active)
- Ki [47]: > 2000 nM (inactive)
